Values quoted from earlier work in paper PMC9441020 (Journal of medicinal chemistry, 2022).

## O=C(NCc1ccccc1)c1nc(-c2cccs2)nc(O)c1O [compound 11, N-Benzyl-5-hydroxy-6-oxo-2-(thiophen-2-yl)-1,6-dihydropyrimidine-4-carboxamide]
HIV-1 INST
  inhibition of HIV-1 INST: potently inhibited
HCV NS5B
  inhibition of HCV NS5B: without significantly inhibiting

## O=C(O)c1nc(-c2cccs2)nc(O)c1O [compound 10, 5-Hydroxy-6-oxo-2-(thiophen-2-yl)-1,6-dihydropyrimidine-4-carboxylic acid]
HIV-1 INST
  inhibition of HIV-1 INST: did not inhibit
HCV NS5B
  inhibition of HCV NS5B: effectively inhibiting
